Laboratory results published in ChEMBL document CHEMBL1641378, “Understanding DP receptor antagonism using a CoMSIA approach” (Bioorg Med Chem Lett, 2011).

Target: T1, Prostaglandin D2 receptor (Homo sapiens, UniProt Q13258)
T1 sequence (Q13258 whole entry): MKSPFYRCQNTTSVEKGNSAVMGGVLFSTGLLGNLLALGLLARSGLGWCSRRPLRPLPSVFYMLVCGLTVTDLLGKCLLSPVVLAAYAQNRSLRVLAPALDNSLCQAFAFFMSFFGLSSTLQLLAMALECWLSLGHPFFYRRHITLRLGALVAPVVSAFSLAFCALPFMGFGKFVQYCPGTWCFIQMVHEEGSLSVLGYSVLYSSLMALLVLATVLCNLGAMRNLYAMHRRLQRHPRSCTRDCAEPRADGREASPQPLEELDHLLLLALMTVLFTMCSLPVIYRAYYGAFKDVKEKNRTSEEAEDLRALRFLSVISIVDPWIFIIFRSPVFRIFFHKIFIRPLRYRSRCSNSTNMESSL
Test: Antagonist activity at prostaglandin D2 receptor in human LS174T cells assessed as inhibition of PGD2-induced cAMP accumulation after 15 mins by scintillation proximity assay
Format: functional, cell-based

**Q.** How did the IC50 turn out when `COc1ccc(CCNc2cc(-c3ccc(F)c(/C=N/O)c3)nc(OC)n2)cc1` was run?
**A.** 4.47 nM
